From ChEMBL document CHEMBL3352669, “Tetrahydrobenzo[h][1,6]naphthyridine-6-chlorotacrine hybrids as a new family of anti-Alzheimer agents targeting β-amyloid, tau, and cholinesterase pathologies” (Eur J Med Chem, 2014)

Experiments:
[1] = target: Microtubule-associated protein tau (Homo sapiens) (UniProt P10636); assay: Inhibition of aggregation of tau protein (unknown origin) expressed in Escherichia coli BL21 (DE3) assessed as amyloid fibril formation at 10 uM after 24 hrs by thioflavin S fluorescence method
Microtubule-associated protein tau (Homo sapiens), sequence (P10636 whole entry): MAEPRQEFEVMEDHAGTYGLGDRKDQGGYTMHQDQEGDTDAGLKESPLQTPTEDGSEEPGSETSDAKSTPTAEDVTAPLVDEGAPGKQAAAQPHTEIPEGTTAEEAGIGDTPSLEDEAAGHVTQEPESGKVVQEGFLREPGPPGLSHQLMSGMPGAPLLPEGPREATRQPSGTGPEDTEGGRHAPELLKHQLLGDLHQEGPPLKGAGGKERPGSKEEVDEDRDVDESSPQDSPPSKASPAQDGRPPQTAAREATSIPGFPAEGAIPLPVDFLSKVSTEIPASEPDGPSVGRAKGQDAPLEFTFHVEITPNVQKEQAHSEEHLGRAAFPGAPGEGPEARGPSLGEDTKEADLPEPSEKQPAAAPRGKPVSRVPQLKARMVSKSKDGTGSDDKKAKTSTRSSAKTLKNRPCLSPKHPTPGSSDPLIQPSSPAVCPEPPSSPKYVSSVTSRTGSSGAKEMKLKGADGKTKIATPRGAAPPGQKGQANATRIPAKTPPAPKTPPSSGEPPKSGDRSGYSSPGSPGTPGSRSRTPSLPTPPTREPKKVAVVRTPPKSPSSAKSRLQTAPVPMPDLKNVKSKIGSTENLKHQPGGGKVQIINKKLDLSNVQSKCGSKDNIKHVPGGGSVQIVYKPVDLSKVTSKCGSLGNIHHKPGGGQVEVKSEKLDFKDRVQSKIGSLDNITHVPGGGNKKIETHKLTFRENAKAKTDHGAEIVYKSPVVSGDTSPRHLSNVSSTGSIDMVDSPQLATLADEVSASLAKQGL

[2] = target: Amyloid-beta precursor protein (Homo sapiens) (UniProt P05067); assay: Inhibition of aggregation of amyloid beta-42 (unknown origin) expressed in Escherichia coli BL21 (DE3) assessed as amyloid fibril formation at 10 uM after 24 hrs by thioflavin S fluorescence method
Amyloid-beta precursor protein (Homo sapiens), sequence (P05067 whole entry): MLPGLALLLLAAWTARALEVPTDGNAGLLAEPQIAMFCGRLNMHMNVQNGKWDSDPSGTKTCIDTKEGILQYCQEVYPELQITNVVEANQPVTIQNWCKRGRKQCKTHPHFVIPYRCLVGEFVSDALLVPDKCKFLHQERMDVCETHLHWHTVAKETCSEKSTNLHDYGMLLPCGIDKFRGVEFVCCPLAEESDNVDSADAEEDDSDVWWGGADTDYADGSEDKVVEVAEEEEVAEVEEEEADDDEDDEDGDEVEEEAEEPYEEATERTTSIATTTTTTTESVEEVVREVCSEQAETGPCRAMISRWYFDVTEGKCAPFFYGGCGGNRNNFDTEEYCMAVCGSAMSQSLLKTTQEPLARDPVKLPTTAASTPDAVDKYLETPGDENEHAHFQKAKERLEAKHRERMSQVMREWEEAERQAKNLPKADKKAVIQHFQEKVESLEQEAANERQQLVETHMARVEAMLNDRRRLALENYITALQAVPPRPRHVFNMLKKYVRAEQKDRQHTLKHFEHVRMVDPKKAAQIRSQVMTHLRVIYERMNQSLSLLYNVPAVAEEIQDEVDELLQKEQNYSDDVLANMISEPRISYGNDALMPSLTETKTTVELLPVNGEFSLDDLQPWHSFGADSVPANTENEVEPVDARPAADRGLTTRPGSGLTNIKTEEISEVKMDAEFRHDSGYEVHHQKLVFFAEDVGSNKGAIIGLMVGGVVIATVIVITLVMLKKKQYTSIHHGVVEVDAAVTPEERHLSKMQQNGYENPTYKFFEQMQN

Cholinesterase = Cholinesterase (Homo sapiens, UniProt P06276); assay: Inhibition of human recombinant BChE using butyrylthiocholine iodide as substrate by spectrophotometric analysis
Cholinesterase, sequence (P06276 whole entry): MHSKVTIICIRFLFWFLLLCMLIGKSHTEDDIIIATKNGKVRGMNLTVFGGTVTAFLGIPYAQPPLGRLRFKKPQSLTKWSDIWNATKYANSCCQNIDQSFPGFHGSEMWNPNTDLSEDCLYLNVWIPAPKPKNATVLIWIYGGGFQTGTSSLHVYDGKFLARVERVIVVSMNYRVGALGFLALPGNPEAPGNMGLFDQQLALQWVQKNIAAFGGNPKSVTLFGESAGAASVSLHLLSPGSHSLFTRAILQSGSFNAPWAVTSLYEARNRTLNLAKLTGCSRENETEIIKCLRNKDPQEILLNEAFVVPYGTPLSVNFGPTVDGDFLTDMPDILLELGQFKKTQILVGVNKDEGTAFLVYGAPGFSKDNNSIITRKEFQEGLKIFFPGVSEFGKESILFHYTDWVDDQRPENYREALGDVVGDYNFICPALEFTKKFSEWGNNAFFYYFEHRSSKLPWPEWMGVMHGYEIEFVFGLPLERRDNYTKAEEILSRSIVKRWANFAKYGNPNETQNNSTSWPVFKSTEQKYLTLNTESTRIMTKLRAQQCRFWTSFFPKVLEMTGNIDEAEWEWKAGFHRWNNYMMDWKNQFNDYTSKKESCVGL

Acetylcholinesterase = Acetylcholinesterase (Homo sapiens, UniProt P22303); assay: Inhibition of human recombinant AChE using acetylthiocholine iodide as substrate by spectrophotometric analysis
Acetylcholinesterase, sequence (P22303 whole entry): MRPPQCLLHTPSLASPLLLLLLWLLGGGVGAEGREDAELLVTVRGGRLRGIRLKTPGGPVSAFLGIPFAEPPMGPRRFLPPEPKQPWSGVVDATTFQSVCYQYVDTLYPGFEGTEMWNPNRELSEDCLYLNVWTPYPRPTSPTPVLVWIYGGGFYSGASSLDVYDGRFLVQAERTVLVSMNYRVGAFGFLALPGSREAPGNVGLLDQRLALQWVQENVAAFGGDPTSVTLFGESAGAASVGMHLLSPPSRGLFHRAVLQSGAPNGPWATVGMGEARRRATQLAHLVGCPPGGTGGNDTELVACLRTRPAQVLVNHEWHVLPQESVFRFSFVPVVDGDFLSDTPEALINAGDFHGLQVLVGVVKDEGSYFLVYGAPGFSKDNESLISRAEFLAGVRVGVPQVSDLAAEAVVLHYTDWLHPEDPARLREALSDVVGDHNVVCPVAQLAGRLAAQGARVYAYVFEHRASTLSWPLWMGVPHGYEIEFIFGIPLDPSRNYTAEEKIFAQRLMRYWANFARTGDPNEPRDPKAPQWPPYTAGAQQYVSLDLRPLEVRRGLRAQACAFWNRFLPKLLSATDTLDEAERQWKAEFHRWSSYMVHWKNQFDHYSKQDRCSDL

`O=C(NCCCCCCCCNc1c2c(nc3cc(Cl)ccc13)CCCC2)c1ccc2nc(-c3ccc(Cl)cc3)c3c(c2c1)OCCC3` was tested, and the inhibition [1] was 37.8%, the inhibition [2] was 54.6% and the IC50 (Cholinesterase; read-out: IC50) was 223 nM. For the same compound, the IC50 (Acetylcholinesterase; read-out: IC50) was 19.3 nM.
Compound `O=C(NCCCCCCCCNc1c2c(nc3cc(Cl)ccc13)CCCC2)c1ccc2nc(-c3ccc(Cl)cc3)c3c(c2c1)NCCC3` has an inhibition [1] of 68.7% and an inhibition [2] of 77.5%.
In the case of `O=C(NCCCCNc1c2c(nc3cc(Cl)ccc13)CCCC2)c1ccc2nc(-c3ccc(Cl)cc3)c3c(c2c1)NCCC3`, the inhibition [1] is reported as 58.9%, the inhibition [2] is reported as 55.8% and the IC50 (Cholinesterase; read-out: IC50) is reported as 205 nM. It also gave an IC50 (Acetylcholinesterase; read-out: IC50) of 14.2 nM.
With `O=C(NCCCCCNc1c2c(nc3cc(Cl)ccc13)CCCC2)c1ccc2nc(-c3ccc(Cl)cc3)c3c(c2c1)NCCC3` the inhibition [1] was 57.7%, the inhibition [2] was 54.3% and the IC50 (Cholinesterase; read-out: IC50) was 337 nM. It also gave an IC50 (Acetylcholinesterase; read-out: IC50) of 14.2 nM.
For `Nc1c2c(nc3cc(Cl)ccc13)CCCC2`, the inhibition [1] was 1.4% and the inhibition [2] was 11%.
`O=C(NCCCNc1c2c(nc3cc(Cl)ccc13)CCCC2)c1ccc2nc(-c3ccc(Cl)cc3)c3c(c2c1)NCCC3` was tested, and the inhibition [1] was 40.7%, the inhibition [2] was 52.5% and the IC50 (Cholinesterase; read-out: IC50) was 120 nM. It also gave an IC50 (Acetylcholinesterase; read-out: IC50) of 0.006 nM.
`CCOC(=O)c1ccc2nc(-c3ccc(Cl)cc3)c3c(c2c1)OCCC3` was tested, and the inhibition [1] was 27.9%, the inhibition [2] was 41.8% and the IC50 (Cholinesterase) was “Not Active”. For the same compound, the IC50 (Acetylcholinesterase) was “Not Active”.
